Series [1] in a line: DPPH free radical scavenging (reducing activity of the stable radical DPPH). Type of series: biochemical. The settings on record: DPPH 50 µM in absolute ethanol; – = did not show any DPPH activity. As for the experimental part:
The reducing activity of investigated systems was achieved by the DPPH method according to previously described procedures with modifications to assure the use in a 96-well microplate. Briefly, equal volumes of various concentrations of tested molecules (dissolved in DMSO) were added to the solution of DPPH (final concentration 50 µM in absolute ethanol). Ethanol and DMSO were used as control solutions in line with earlier reports.[27]
(DPPH is a stable violet radical that fades when it is reduced.)

Series [2] can be described thus: Ferric reducing/antioxidant power (FRAP assay). Format: biochemical. The settings on record: triplicate; – = not active in the FRAP assay. As for the experimental part: The FRAP method was carried out according to previously described procedures with some modifications to be compatible with an assay on a 96-well microplate. All results were expressed as Fe^2+ equivalents (Fe^2+ µmol).

The next series concerns H 460 (lung carcinoma). Nature of the series: Antiproliferative activity in vitro, MTT, 72 h. The settings on record: Homo sapiens, NCI-H460, 72 h, concentration that causes 50% growth inhibition; 72 h, MTT. Type of series: cell-based, human. As for the experimental part:
(§1) The experiments were performed on four human cell lines, including HCT 116 (colon carcinoma), H 460 (lung carcinoma), MCF-7 (breast carcinoma) and HEK 293 (human embryonic kidney cells), in line with previously published experimental procedures[10]^,[25]. Briefly, the cells were grown in DMEM medium with the addition of 10% foetal bovine serum (FBS), 2 mM L-glutamine, 100 U/mL penicillin and 100 µg/mL streptomycin, and cultured as monolayers at 37 °C in a humidified atmosphere with 5% CO2. Cells were seeded at 2 × 10^3 cells/well in a standard 96-well microtiter plates and left to attach for 24 h. Next day, a test compound was added in five serial 10-fold dilutions. The rate of cell growth was evaluated after 72 h of incubation with MTT reagent. The obtained results are expressed as IC50 values, calculated from the concentration-response curves using linear regression analysis by fitting the test concentrations that give PG values above and below the reference value (i.e. 50%). Each test was performed in quadruplicate in at least two individual experiments.

Another series concerns HCT116 (colon carcinoma). Briefly: Antiproliferative activity in vitro, MTT, 72 h. The settings on record: Homo sapiens, HCT-116, 72 h, concentration that causes 50% growth inhibition. Type of series: cell-based. As for the experimental part:
as §1

For another series, the system named is MCF-7 (breast carcinoma). Briefly: Antiproliferative activity in vitro, MTT, 72 h. Format: cell-based. The settings on record: Homo sapiens, MCF7, concentration that causes 50% growth inhibition. As for the experimental part: as §1
In a further series the test system is Nrf2. Nature of the series: Western blot analysis of Nrf2 in cytoplasmic and nuclear fraction. Type of series: cell-based, human. The settings on record: HCT116 cells, 1 h; 34 at 50 µM, 40 at 5 µM, hydrogen peroxide 4 mM. As for the experimental part: Cell line HCT116 was seeded in 60 mm cell culture dishes (TPP, Switzerland) in a concentration of 9 × 10^5 cells/dish. Next day, the cells were treated with 4 mM hydrogen peroxide as a positive control for ROS induction and with compounds 34 and 40 (50 µM and 5 µM, respectively) for 1 h. Nuclear extracts from the cells were prepared using nuclear extraction buffer kit (Abcam, Cambridge, UK, ab113474) according to the manufacturer instructions. BCA assay (Sigma Aldrich, Taufkirchen, Germany) was performed for the determination of the protein concentration in nuclear and cytoplasm fractions. Denaturation of 1 μg of total proteins in Laemmli SDS loading buffer was performed at 95 °C for 5 min. After loading, 10% SDS poly-acrylamide gel electrophoresis was carried out and then proteins were transferred to nitrocellulose membranes. Afterwards, the membranes were blocked in blocking buffer (ImmobilonBlock – CH (Chemiluminescent Blocker), MerckKGaA, Darmstadt, Germany) and incubated 5 h at room temperature with primary antibody dissolved in ImmobilonBlock – CH (Chemiluminescent Blocker). After the membranes were washed three times for five minutes each with Tris-buffered saline with 0.5% Tween 20 (TBST), they were incubated in the corresponding secondary antibody for 1 h at room temperature or overnight at 4 °C. After washing with TBST, the membranes were processed for enhanced chemiluminescence (ECL) Clarity Max Western ECL Substrate (Bio-Rad Laboratories, Hercules, CA, USA) and captured using Odyssey Fc (LICOR, Bad Homburg, Germany). The primary antibody used was anti-Nrf2, (dilution 1:500, Anti-Nrf2 antibody: ab133347, Abcam), Histon H3 (dilution 1:2000, Anti-H3 antibody: Ab1791, Abcam), β-actin (dilution 1:500, sc-47778, Santa Cruz Biotechnology) and corresponding secondary HRP-conjugated IgG antibody (dilution 1:2000, mouse IgGκ, Santa Cruz Biotechnology).
Figure 5. Nrf2 protein levels in the cytoplasmic and the nuclear fraction of HCT116 cells, assessed by Western blot analysis. […]

Series [3] relates to HEK 293 (human embryonic kidney cells). Briefly: Antiproliferative/cytotoxic activity in vitro on non-tumour cells, MTT, 72 h. Format: cell-based. The settings on record: for IC50: Homo sapiens, HEK293, non-tumour cell line, concentration that causes 50% growth inhibition, 72 h, MTT. As for the experimental part:
as §1

Structures are written as SMILES. Values joined by “and” are separate entries in the source; they are usually repeats but may differ in a detail not shown here. Equal entries are not always repeated.

What is called IC50 is the midpoint of a concentration-inhibition curve. Low values mean higher potency, high ones lower potency. For `COc1ccc(C(=O)Nc2nc3ccc(C#N)cc3n2C)c(OC)c1` [Compound 34, N-(6-Cyano-1-methyl-1H-benzo[d]imidazol-2-yl)-2,4-dimethoxybenzamide], the half-maximal inhibitory concentration (IC50) in series [1] is ~5680 µM and 5680 µM; with H 460 (lung carcinoma), 21.9 ± 2.9 µM; with HCT116 (colon carcinoma) it was 47.6 ± 30 µM; in the series with MCF-7 (breast carcinoma), 46.9 ± 35.4 µM; in series [3] it was 93.3 ± 2.3 µM. Further, the FRAP in series [2] is 618.10 mmolFe^2+/mmolC and 618.10 ± 66.10 mmolFe^2+/mmolC. Further, in the series on Nrf2, the “translocation of Nrf2 to the nucleus (nuclear expression of Nrf2)” value (shortened to “translocation of Nrf2 to the nucleus”) is “did not promote the translocation of Nrf2 to the nucleus”.

For `CC(C)Cn1c(NC(=O)c2ccccc2)nc2ccc(C#N)cc21` [Compound 40, N-(6-Cyano-1-isobutyl-1H-benzo[d]imidazol-2-yl)benzamide], the concentration for half-maximal inhibition (IC50) in series [1] was 11500 ± 1500 µM; in the series with HCT116 (colon carcinoma) it was ~0.6 µM; with MCF-7 (breast carcinoma), 2.2 ± 1.9 µM; in series [3] it was 9.1 ± 1 µM. The compound further showed an FRAP in series [2] of 203.50 ± 10.53 mmolFe^2+/mmolC. Moreover, in the series on Nrf2, the “translocation of Nrf2 to the nucleus” value is “did not promote the translocation of Nrf2 to the nucleus”. For the same compound, in series [3] (HEK 293 versus tumour cancer cells), the “cytotoxicity towards non-tumour cell line compared with tumour cells” value is “significantly less cytotoxic towards non-tumour cell line HEK 293”.

Take `OO` [hydrogen peroxide, reference compound]: the “translocation of Nrf2 to the nucleus” value in the series with Nrf2 is given as “significantly higher in the nucleus”.

The values are drawn from PMC9090388, “Design, synthesis, biological evaluation and QSAR analysis of novel N-substituted benzimidazole derived carboxamides” (Journal of Enzyme Inhibition and Medicinal Chemistry, 2022).
